Drawing on US20260199484A1, “PROTAC DEGRADERS OF MLLT1 AND/OR MLLT3” (DARK BLUE THERAPEUTICS LTD, priority 2024, published 2026), this text covers IC50, DC50 and Dmax for six molecules.

The target in assay [1] is T1, MLLT1 (Homo sapiens, UniProt Q03111).
T1 sequence (Q03111 1-559): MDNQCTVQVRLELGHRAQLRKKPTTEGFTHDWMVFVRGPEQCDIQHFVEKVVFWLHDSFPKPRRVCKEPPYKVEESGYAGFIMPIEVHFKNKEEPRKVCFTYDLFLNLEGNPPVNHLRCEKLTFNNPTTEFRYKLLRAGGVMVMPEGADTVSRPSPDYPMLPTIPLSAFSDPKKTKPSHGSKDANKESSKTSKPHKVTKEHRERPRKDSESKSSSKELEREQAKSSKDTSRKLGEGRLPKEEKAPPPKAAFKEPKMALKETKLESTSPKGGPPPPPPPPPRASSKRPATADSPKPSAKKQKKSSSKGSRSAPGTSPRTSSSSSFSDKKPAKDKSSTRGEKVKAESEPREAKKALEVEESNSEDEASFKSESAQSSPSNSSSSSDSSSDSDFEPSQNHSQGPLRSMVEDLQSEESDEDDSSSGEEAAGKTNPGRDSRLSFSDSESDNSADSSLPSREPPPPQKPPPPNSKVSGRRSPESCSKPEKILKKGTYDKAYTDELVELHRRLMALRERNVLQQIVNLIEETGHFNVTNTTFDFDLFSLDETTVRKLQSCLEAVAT
The assay is described as follows: MLLT1 HTRF IC50 determination assay (H3K9cro peptide displacement). It counts as binding. The text has this:
(§1) This procedure is intended to measure the interaction between YEATS proteins and histone peptides modified by an appropriate epigenetic mark and can be used to assay compounds which bind to the YEATS proteins and inhibit this interaction. The assay uses 6His tagged MLLT1 or MLLT3 with an anti-6His antibody conjugated with Eu^3+ chelate (donor) and a biotinylated peptide with Streptavidin conjugated XL-665 (acceptor). When the donor and acceptor labels are in close proximity, by binding of the peptide by MLLT1 or MLLT3, the excitation of the donor (337 nm) triggers a Fluorescence Resonance Energy Transfer (FRET) to the acceptor which then fluoresces at specific wavelength (665 nm).
(§2) This step optimises the protein/peptide ratio that will be used in HTRF screening assay in order to allow the best signal-to-noise ratio. Each new purified protein should be titrate this way as the signal-to-noise ratio may differ from different protein batches. Displacement assay for MLLT1 and MLLT3 was performed by using H3K9 cro peptide (ARTKQTAR(Kcrot)STGGKAPRKQLYK(biotin)).
(§3) A serial dilution of 4× solution of biotinylated peptide was prepared in assay buffer (25 mM HEPES, 20 mM NaCl, 0.05% BSA, 0.05% Tween-20, pH 7.0) covering concentrations from 3.2 μM to 0.2 nM. and 5 μL of each dilution were transferred horizontally to fill 15 columns of a white ProxiPlate-384 Plus shallow well Microplate (Perkin Elmer, USA). A sixteenth column of buffer was also included for a background reference. In parallel, a serial dilution of the 6His-tag protein of interest was prepared in the same way and 5 μL of each dilution were vertically added to the wells containing the peptide dilutions. Buffer has been transferred to the last line of the plate in order to make a no-protein reference. The microplate has been covered and incubated 1 hour at room temperature. A 2× detection mix was prepared in assay buffer by diluting streptavidin conjugated with XL-665 (610SAXLB, Cisbio Bioassays, France) to 1/2000 and anti-6His(Eu) chelate (LANCE Eu-W1024 Anti-6×His, ADO111, Perkinelmer LAS (UK)LTD) to 1/20000, 10 μL were added to each well and the plate has been incubated for 1 to 24 hours at room temperature in the dark. The plate was read in the Pherastar using the HTRF module with dual emission protocol (A=ex. 320 nm em. 665 nm, B=ex. 320 nm em. 620 nm).
(§4) The HTRF ratio was calculated as channel A/B*10000 and the specific signal as follow: specific signal=HTRF Ratio Positive signal—HTRF Ratio Negative signal (without protein). The concentrations of protein and peptide that allow the maximum specific signal without saturation were selected to perform HRTF screening assay described below.
(§5) The compounds were dissolved in DMSO at a stock concentration of 10 mM and dispensed into microplate using the Echo acoustic liquid handler (Labcyte, Beckman Coulter, USA). The assay covers a window of compound concentrations from 20 μM to 20 nM spread in 11 data points in duplicate. Solvent and compound controls were added to each plate in order to calculate the background signal.
(§6) Ten microliters of 2× mix of 6His-protein and biotinylated peptide, the concentrations were determined above, were added to the dispensed compounds and incubated for one hour at room temperature in the dark. Ten microliters of the 2× detection mix was added to each well and the plate was incubated for another hour at room temperature in the dark and the plate was read in order to calculate the HTRF specific signal. The % inhibition values as follows:
(§7) The IC50 values were determined by plotting % inhibition vs compound concentration and fitting the data to a non-linear sigmoidal dose response equation (4 parameter fit): […]
(In TR-FRET formats the signal depends on donor and acceptor labels being close together.)

Another assay has as its target T2, MLLT3 (Homo sapiens, UniProt P42568).
T2 sequence (P42568 1-568): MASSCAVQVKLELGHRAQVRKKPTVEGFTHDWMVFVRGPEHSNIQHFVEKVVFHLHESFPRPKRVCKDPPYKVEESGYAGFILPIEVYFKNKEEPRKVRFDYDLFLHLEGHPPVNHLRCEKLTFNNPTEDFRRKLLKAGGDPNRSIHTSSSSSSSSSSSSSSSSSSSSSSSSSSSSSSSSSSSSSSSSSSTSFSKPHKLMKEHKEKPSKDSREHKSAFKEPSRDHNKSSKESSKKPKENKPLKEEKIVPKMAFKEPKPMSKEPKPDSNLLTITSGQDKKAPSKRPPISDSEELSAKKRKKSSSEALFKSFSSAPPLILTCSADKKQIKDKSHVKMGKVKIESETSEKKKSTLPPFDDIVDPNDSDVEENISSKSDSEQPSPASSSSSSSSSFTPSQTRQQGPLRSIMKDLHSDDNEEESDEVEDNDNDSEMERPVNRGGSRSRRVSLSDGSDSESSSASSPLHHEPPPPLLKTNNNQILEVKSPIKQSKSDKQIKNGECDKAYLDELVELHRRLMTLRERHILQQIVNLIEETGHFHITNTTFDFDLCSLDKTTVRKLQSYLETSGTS
Put plainly: MLLT3 HTRF IC50 determination assay (H3K9cro peptide displacement). The class given is binding.
Excerpt: as §1, §2, §3, §4, §5, §6, §7

Assay [2] deals with MV4-11 cells. Put plainly: MV4-11 cellular proliferative assay, Assay Format A (CellTiter-Glo, 120 h). The class given is cell-based. As to conditions: Homo sapiens, Assay method A, Table 3, read-out: MV4-11 antiproliferative IC50. Summed up: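 MV4-11 cells seeded at 50 cells/well and exposed for 120 h to compound (10 semi-log dilutions, top 30 μM) or DMSO. Viability by CellTiter-Glo luminescence, normalised to DMSO and reference-compound wells; AC50 from Hill fit.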
On the technique in general: ATP-based viability assays read luminescence as a measure of living cells.

The subject of assay [3] is MV4-11 cells. The assay is described as follows: MV4-11 cellular proliferative assay, Assay Format B (CTG 2.0, 168 h). It counts as cell-based. As to conditions: Homo sapiens, Assay Method B, Table 7, read-out: MV4-11 Antiproliferation IC50. Summed up: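 Cells seeded at 600/well in IMDM + 10% FBS, incubated overnight, then exposed 168 h (7 days) at 37 °C to 10 concentrations, 3-fold dilutions from 1 uM or 100 nM top dose (0.3% DMSO final). Viability by CTG 2.0 luminescence as % of DMSO control; curves fitted by four-parameter logistic regression.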

The target in assay [4] is T1, MLLT1. The assay is described as follows: MLLT1 DC50 and Dmax determination in MV4-11 cells (JESS, 4 h). The class given is cell-based. Details: endogenous in cells; host or cells: MV4-11 (ATCC CRL-9591). As to conditions: MLLT1 degradation. The procedure:
MLLT1 degradation efficacy of compounds was tested in an automated chemiluminescent detection system (JESS, Cat #004-650). MV4-11 (#CRL-9591, ATCC) were seeded at a density of 1.2 million cells/well in a non-treated 6-well cell culture plate in 2.4 mL of complete medium (IMDM+10% FBS+1× Penicillin-Streptomycin). 10 mM DMSO stocks were prepared, and cells were treated with eight concentrations of test compounds, starting from 100 nM, 5-fold dilution, at a final DMSO concentration of 0.1% and incubated for 4 h at 37° C., 5% CO2. Post incubation, cells were centrifuged, washed with HBSS and lysed in 60 μL of RIPA buffer supplemented with Protease inhibitors (sc-24948; Santa Cruz). Protein estimation was done using BCA protein assay kit (23228; Pierce). 4 gg protein lysate (4 μL of 1 μg/μL lysate) was loaded into each well of the JESS cartridge (SM-W004; Bio-techne) and the JESS run was performed using 1:900 dilution of anti-human MLLT1 antibody (ABE2596; Merck) and 1:1200 dilution of anti-human GAPDH antibody (2118; Cell signaling technology) with anti-rabbit secondary detection module (DM-001; Bio-Techne). Post run, data was analysed using “Compass for SW” software for chemiluminescent detection. Peak fit was done using “dropped lines” method. Peak area for MLLT1 and GAPDH was used for the calculation of MLLT1 degradation with respect to DMSO control. Data was shown as “% degradation”. % Degradation was plotted against the respective doses (test compound concentration) and dose-response curve (DRC) was generated using four-parameter logistic equation (non-linear regression). Following parameters for each DRC was captured: DC50 (concentration in nM at which degradation is 50%, interpolated from standard curve and transformed to linear scale), Dmax (maximum % degradation observed). DC50 and Dmax data are captured in Table 7 for Example 1 and Example 110, which is a comparative example.

On to `Cc1nn(C)c2cc(C(=O)Nc3cc4[nH]c([C@H]5CCCN5C)cc4cn3)ccc12` (single isomer, unassigned) [Example 76], for which the IC50 at MLLT1 [1] (Table 5) is 43 nM; at MLLT1 [1] (category, Table 4) it was not above 100 nM; at MLLT3 (Table 5) it was 81 nM; on MLLT3 (category, Table 4), not above 100 nM; with MV4-11 cells [2], 40 nM.

Take `Cc1nc(NC(=O)c2ccc3c(C)nn(C)c3c2)cc2[nH]c(C3CCCN3C)cc12` (single isomer, unassigned) [Example 92, 1,3-dimethyl-N-{4-methyl-2-[(rel-2R)-1-methylpyrrolidin-2-yl]-1H-pyrrolo[3,2-c]pyridin-6-yl}indazole-6-carboxamide]: the IC50 at MLLT1 [1] (Table 5) is 37 nM; on MLLT1 [1] (category, Table 4), not above 100 nM; on MLLT3 (Table 5) it was 63 nM; on MLLT3 (category, Table 4), not above 100 nM.

Turning to `Cc1nc(NC(=O)c2ccc3c(C)nn(C)c3c2)cc2[nH]c(C3CCCN3C)cc12` (single isomer, unassigned) [Example 93, 1,3-dimethyl-N-{4-methyl-2-[(rel-2S)-1-methylpyrrolidin-2-yl]-1H-pyrrolo[3,2-c]pyridin-6-yl}indazole-6-carboxamide], the IC50 on MLLT1 [1] (category, Table 4) was in the range of 1000 to 10000 nM; at MLLT3 (category, Table 4), 1000 to 10000 nM.

On to `Cc1nn(C)c2cc(C(=O)Nc3cc4[nH]c([C@H]5CCCN5C)c(Cl)c4cn3)ccc12` [Example 80, N-{3-chloro-2-[(2R)-1-methylpyrrolidin-2-yl]-1H-pyrrolo[3,2-c]pyridin-6-yl}-1,3-dimethylindazole-6-carboxamide], for which the IC50 on MLLT1 [1] (Table 5) was 6 nM; on MLLT1 [1] (category, Table 4), not above 100 nM; on MLLT3 (Table 5) it was 22 nM; on MLLT3 (category, Table 4) it was not above 100 nM.

Take `Cc1nn(C)c2cc(C(=O)Nc3cc4[nH]c([C@@H]5CCCN5C)c(Cl)c4cn3)ccc12` [Example 81, N-{3-chloro-2-[(2S)-1-methylpyrrolidin-2-yl]-1H-pyrrolo[3,2-c]pyridin-6-yl}-1,3-dimethylindazole-6-carboxamide]: the IC50 at MLLT1 [1] (category, Table 4) fell in the range of 100 to 1000 nM; at MLLT3 (category, Table 4), 1000 to 10000 nM.

As to `Cc1nn(CCCCCCCC#Cc2cccc3c2CN(C2CCC(=O)NC2=O)C3=O)c2cc(C(=O)Nc3cc4[nH]c(CN5CCCC5)cc4cn3)ccc12` (centres unmarked) [Example 110, 1-(9-(2-(2,6-dioxopiperidin-3-yl)-1-oxoisoindolin-4-yl)non-8-yn-1-yl)-3-methyl-N-(2-(pyrrolidin-1-ylmethyl)-1H-pyrrolo[3,2-c]pyridin-6-yl)-1H-indazole-6-carboxamide], the IC50 in the assay with MV4-11 cells [3] was more than 1000 nM. At MLLT1 [4], this molecule showed a DC50 of 41 nM. This molecule yielded a Dmax at MLLT1 [4] (maximum % degradation observed) of 58%.

As usually defined, the DC50 is the midpoint of the concentration-degradation curve. The term Dmax denotes the largest share of the target that was removed. The low end stands for a partial loss of target, the high end for a fuller loss of target.
